Read-outs that look alike come from different tables or passages of the source.
Tested on: TK6 cells
Method: These articles have been recommended for use in the OECD test guideline (Test No. 487)[49]. For metabolic activation, pre-cultured TK6 cells with the culture medium were supplemented with Sprague–Dawley rat liver mix (S9 mix, IEDA TRADING CORPORATION, Japan) at 3.33 vol%. Then, compound was mixed with the cell suspension and treated under the following treatment conditions: • Short-term treatment for 3 h without S9 mix, followed by a 21-h culture (−S9 mix assay), • Short-term treatment for 3 h with S9 mix, followed by a 21-h culture (+S9 mix assay), or • Continuous treatment for 24 h without S9 mix (24-h assay). For treatment conditions 1 and 2, the cells in each well were centrifuged after the 3-h treatment, the supernatants were discarded, and the cells were washed twice with culture medium. The cells were further cultured with fresh culture medium for 21 h. The compound-treated cells were examined by the unaided eye for precipitation of compound at the start and end of treatment. After treatment, the rest of each cell suspension was centrifuged and then the cells were suspended in a 0.075 mol/L KCl solution at room temperature for 10 min. Then, 25 vol% acetic acid containing methanol was added and the centrifuged cells were fixed. The fixed cells were resuspended in a small amount of 3 vol% acetic acid containing methanol, which was changed two times by centrifugation. Finally, a drop of the cell suspension was transferred onto a slide and dried at room temperature. The slides were stained at room temperature in a 3 vol% Giemsa solution (Merck KGaA) diluted with Sörensen phosphate buffer (1/15 mol/L, pH 6.8, Muto Pure Chemicals Co. Ltd.). Four slides per dose (2 slides per well) were prepared. Each slide was coded randomly. The test was conducted at the following doses of TEC-1. -S9 mix assay: 1.5, 1.7, 1.9, 2.1, 2.3, 2.5, 2.7, 2.9, and 3.1 µg/mL, + S9 mix assay: 1.9, 2.1, 2.3, 2.5, 2.7, 2.9, 3.1, 3.3, and 3.5 µg/mL, 24-h assay: 0.9, 1.1, 1.3, 1.5, 1.7, 1.9, 2.1, 2.3, and 2.5 µg/mL. To perform scoring for compound and negative control groups, the number of cells in the suspensions was counted using a Coulter Counter (Z2; Beckman Coulter, Inc.). The positive control groups were not determined. A portion (0.5 mL) of the cell suspension was diluted with 20 mL of Isoton II, and 0.5 mL of this solution was used for cell counts. The cell number per 1 mL at each culture was calculated by the following formula. Cellnumber/mL=Dilutionfactor×valueof1stcount+valueof2ndcount/2×2
The population doubling (PD) and relative population doubling (RPD) at each concentration was calculated by the following formula. PD=log10cell number at the end of culture/cell number at the start of treatment∗/log102∗:1×10^5cells/mL.
RPD%=PD of the compound-treated group/PD of the negative control group×100 For the treated groups, the 3 consecutive concentrations were selected as follows. […] For all concentrations, 4000 mononuclear cells with cytoplasm were analyzed and the number of cells with micronucleus (micronuclei) was counted using a microscope (× 600). Micronucleus is identified as a round or oval small nucleus in the cytoplasm with the same staining intensity as the main nucleus. The diameter of each micronucleus should be less than 1/2 of the diameter of the main nucleus. Two investigators observed the slides. Each investigator scored 1000 cells for the frequency of micronucleated cells. Data from the two investigators were combined for each culture and the combined data from duplicate cultures were pooled for each concentration for each treatment condition. A cell having one or more micronuclei was recorded as a micronucleated cell.

## Cc1cn2nc(-c3nc4ccc(N5CCN(C)CC5)cc4c(=O)[nH]3)cc2c(C)n1 [TEC-1, 2-(4,6-dimethylpyrazolo[1,5-a]pyrazin-2-yl)-6-(4-methylpiperazin-1-yl)quinazolin-4(3H)-one]
  micronucleus induction, overall conclusion: do not induce micronucleation
24-h assay condition, culture medium
  concentration at which precipitation was noted: ≥ 1.5 µg/mL
human, 3 h
  concentration at which cytotoxicity (RPD of less than 50%) was noted: ≥ 2.3 µg/mL
human, 3 h, 1.9 µg/mL
  Micronucleated cells (%): (0.73) %
  Micronucleated cells Total: 29
  Micronucleated cells Well 1: 13
  Micronucleated cells Well 2: 16
  Relative population doubling: 68.6%
human, 3 h, 2.1 µg/mL
  Micronucleated cells (%): (0.9) %
  Micronucleated cells Total: 36
  Micronucleated cells Well 1: 16
  Micronucleated cells Well 2: 20
  Relative population doubling: 65.4%
human, 3 h, 2.3 µg/mL
  Micronucleated cells (%): (1.4) **^,## %
  Micronucleated cells Total: 56
  Micronucleated cells Well 1: 29
  Micronucleated cells Well 2: 27
  Relative population doubling: 35.0%
human, 24 h, 1.1 µg/mL
  Micronucleated cells (%): (0.85) %
  Micronucleated cells Total: 34
  Micronucleated cells Well 1: 21
  Micronucleated cells Well 2: 13
  Relative population doubling: 81.7%
human, 24 h, 1.3 µg/mL
  Micronucleated cells (%): (0.73) %
  Micronucleated cells Total: 29
  Micronucleated cells Well 1: 17
  Micronucleated cells Well 2: 12
  Relative population doubling: 74.4%
human, 24 h, 1.5 µg/mL
  Micronucleated cells (%): (0.8) %
  Micronucleated cells Total: 32
  Micronucleated cells Well 1: 17
  Micronucleated cells Well 2: 15
  Relative population doubling: 69.5%

Source: paper PMC7562719, “Discovery of a CNS penetrant small molecule SMN2 splicing modulator with improved tolerability for spinal muscular atrophy” (Scientific Reports, 2020)
